This is an account of results in patent US20160082133A1, “CHEMICAL EXCHANGE SATURATION TRANSFER (CEST) BASED MRI USING REPORTER GENES AND SUBSTRATES AND METHODS THEREOF” (The Johns Hopkins University, priority 2013, published 2016).

The nature of assay [1]: Exchange rate estimation by QUEST method. Type of assay: physicochemical. The note with it: pH 7.4, 37° C.; cytosine 2 ppm, 5FC 2.4 ppm. The protocol:
The exchange rate of exchangeable protons with a frequency of 2 ppm for cytosine and 2.4 ppm for 5FC at pH=7.4 was measured using the modified Quantifying Exchange using Saturation Time (QUEST) method (McMahon, M. T. et al. Magn Reson Med 2006, 55, 836). In brief, the CEST contrast for samples containing 20 mM cytosine or 5FC (40 mM of amine protons) at pH 7.4 was measured with saturation delays of 0.5, 1, 1.5, 2, 3, 5, and 9.5 sec, using a saturation field strength of 5.9 μT (300 Hz) and a repetition time (TR) set to 10 sec, using the RARE imaging sequence described above. The calculated MTRasym values were then fit using numerical solutions to the Bloch-McConnel equations with an exchange rate (kex). The water T1w and T2w were experimentally determined as approximately 4 sec and 1.6 sec, respectively, using the saturation recovery spin echo method and the CPMG multi-echo spin echo sequence, respectively. The fixed model parameters were water solute R1s=0.71 Hz and solute R2s=39 Hz.

Assay [2] deals with T1, Escherichia coli CDase (CodA) (Escherichia coli, UniProt P25524).
T1 construct: 6xHis (C); made in house; host or cells: E. coli BL21 (DE3), crude protein extract
The assay is described as follows: Deamination by crude recombinant CDase extracts measured using CEST MRI. It is filed as biochemical. To be noted: 20 mM substrate, crude CDase extract, 37° C. The protocol: FIGS. 9A-9D show monitoring of recombinant CDase activity using CEST MRI. (FIG. 9A) Western blot using an anti-six-histidine-tag antibody of protein extracts from E. coli engineered to express CD or HSV1-tk (TK). (FIG. 9B) Deamination of cytosine and 5FC (20 mM) by crude CDase extracts measured using CEST MRI at 37° C. and 9.4 T. Conversion was quantified as (1−MTR^tasym/MTR^0asym)×100%, where MTR^tasym/MTR^0asym are the contrasts at time t, and at t=0, respectively. (FIG. 9C, D) maps and statistical analysis (two tailed unpaired students t-test; n=3) of 20 mM (FIG. 9C) cytosine and (FIG. 9D) 5 FC incubated with CDase (0.6 ug crude protein) for 24 hours.
The gene encoding the E. coli Cytosine Deaminase (CDase, CodA) was obtained from the American Type Culture Collection (ATCC Cat. 4099). […] Both genes were sub-cloned into the pEXP5-CT expression vector (Invitrogen) in a reading frame with a C-terminal six-histidine tag under a T7 promoter. […] The recombinant proteins were expressed after induction in Magic Media™ (Invitrogen), and both could be detected with Western blot using an anti-6-histidine tag antibody. […]
Data processing was performed using custom-written scripts in MATLAB (Mathworks, Waltham, Mass.). CEST spectra were calculated from the mean of an ROI placed over each sample after B0 correction of the contrast on a per voxel basis. […]

For assay [3], the system named is HEK293FT cells. The assay is described as follows: CEST MRI of culture media, CDase activity in HEK293FT cells. Type of assay: cell-based, Human. To be noted: HEK-293FT; 7 mM cytosine or 10 mM 5FC. The text has this:
(§1) All MR images were acquired with a 9.4T Bruker Avance system equipped with a 15 mm sawtooth RF coil. A modified RARE sequence (TR=6.0 sec, effective TE=43.2 ms, RARE factor=16, slice thickness=0.7 mm, FOV=14×14 mm, matrix size=128×64, resolution=0.11×0.22 mm^2, and NA=2) including a magnetization transfer (MT) module (one CW pulse, B=[…] (150 Hz), 3 sec) was used to acquire CEST-weighted images from −6 ppm to 6 ppm (step=0.2 ppm) around the water resonance (0 ppm). The absolute water resonant frequency shift was measured using a Water Saturation Shift Reference (WASSR) (Kim, M. et al. Magnetic Resonance in Medicine 2009, 61, 1441) method modified (Liu, G. et al. Contrast Media Mol Imaging 2010, 5, 162) with Lorentzian analysis. […]
(§2) Data processing was performed using custom-written scripts in MATLAB (Mathworks, Waltham, Mass.). CEST spectra were calculated from the mean of an ROI placed over each sample after B0 correction of the contrast on a per voxel basis. The CEST signal was quantified using MTRasym at specific offsets of interest (i.e., &ω=+2 ppm for cytosine or +2.4 ppm for 5FC) using the definition: MTRasym=(S^−˜ω−S^+″ω)/S0, where and s[−˜ω, +Aω] is the water signal intensity in the presence of a saturation pulse at offsets ±Aω, and S0 is water signal intensity in the absence of a saturation pulse. […]

The subject of assay [4] is 9L cells. The assay is described as follows: CEST MRI of culture media, CDase activity in 9L cells. It is filed as cell-based, Rat. To be noted: CDase-expressing 9L cells, 48 h incubation.
Description: as §1, §2

Assay [5] can be described thus: CEST-MRI of LRRASLG and LRRApSLG peptides in PBS. It is filed as physicochemical. To be noted: 1 mM, PBS pH 7.4, 11.7T. The protocol:
Peptides were synthesized by NeoBioSci (Cambridge, Mass.) and provided as lyophilized powder. All compounds were dissolved in 10 mM PBS (pH 1/4 7.4) at the indicated concentration.
(§3) CEST MRI experiments were performed on a vertical 11.7T Bruker Avance system. Approximately […] of each sample was loaded into a capillary tube and up to 20 samples were scanned at each session to minimize variability as described before (Liu G et al., High-throughput screening of chemical exchange saturation transfer MR contrast agents. Contrast Media Mol Imaging 2010; 5:162-17). […] To account for inhomogeneity of the B0 field, the absolute water resonant frequency shift was measured using a modified water saturation shift reference method (Kim M et al., Water saturation shift referencing (WASSR) for chemical exchange saturation transfer (CEST) experiments. Magn Reson Med 2009; 61:1441-1450), using the same parameters as in CEST imaging except pulse repetition time 1/4 1.5 s, saturation pulse 1/4 500 ms, B1 1/4 […], and a sweep range from −2 to +2 ppm (step 1/4 0.1 ppm). […] After B0 correction for each voxel using the water saturation shift reference data, mean CEST-spectra were calculated from a region of interest (ROI) for each sample. […]

Assay [6] concerns the target T2, PKA (Mus musculus, UniProt P05132).
T2 construct: purchased New England Biolabs
The assay is described as follows: Phosphorylation assay with recombinant PKA read out by CEST MRI. Type of assay: biochemical. To be noted: 1 mM peptide. The protocol: as §3, with “sample. The MTR asymmetry was quantified as MTRasym 1/4 (S^−Δω−S^+Δω)/S^0 (S^−Δω and S^+Δω are the water peak differentials due to saturation at the target frequency +ω and its negative −ω, respectively. S^0 is the unsaturated signal).” for “sample.”

Assay [7] deals with C17.2 cells. The assay is described as follows: 19F NMR detection of conversion of 5FC to 5FU, C17.2 cells. Set-up: key: (−): no 5FU was detected. To be noted: 10 mM 5FC. It is filed as cell-based, mouse. The protocol:
(§4) For each cell type, the same number of transduced (CD) or non-transduced (wild type, WT) cells were plated into 6-well plates (5.6×10^6 HEK293FT cells, 10^6 9 L cells, and 1.4×10^6 C17.2 cells, respectively). Approximately 6 hours later, fresh culture medium containing 7 mM cytosine or 10 mM 5FC was added to the cells. Fifty microliters of the culture media were collected at different time points up to 24 hours for HEK293FT cells (i.e. 0.5, 4, 6, and 24 hours), and up to 48 hours for the other two cell lines (i.e., 0.5, 4, 6, 24, and 48 hours). These samples were then transferred into capillaries and measured for CEST signal at 2 ppm for cytosine and 2.4 ppm for 5FC.
(§5) Studies were performed using a 500 MHz Bruker NMR spectrometer. ^19F NMR spectra of the enzymatic mixture or aqueous solutions of 10 mM 5FC and 5FU standards (FIG. 30 a and b) were acquired using a single-pulse sequence with a flip angle of 90°, TR=5 sec, and NA=32, carried out at 25° C. with the spectra centered at the resonance frequency of 5FC. NMR data were processed and plotted using Topspin (Bruker, M A). For the cell culture media incubated with 10 mM 5FC for 24 and 48 hours for all three cell types, the ^19F NMR spectrum was measured using the same protocol, except the number of averages was changed to 64 to improve SNR. 5FU peaks were only detected for HEK293FT cells after 24-hour and for 9L cells after 48 hours (FIG. 30 c,d). The complete results of the conversion detected using F NMR are listed in Table 1, as quantified by a conversion rate=peak area(5FU)/(peak area(5FU)+peak area(5FC)).

Assay [8] has as its system 9L. The assay is described as follows: Cell proliferation assay, 9L. The note with it: CD-transduced 9L, 10 mM 5FC, 40 hours. It is filed as cell-based, Rat. The protocol:
(§6) Both wild type- and CD-transduced cells were plated in 96-well cell culture plates to reach a sufficient cell number before 5FC treatment. Then media were replaced with media containing 10 mM 5FC. After 40 hours of incubation, cell viability was determined using a […] assay kit (Invitrogen).

Assay [9] relates to 9L cells. The assay is described as follows: 19F NMR detection of conversion of 5FC to 5FU, 9L cells. To be noted: 10 mM 5FC. Set-up: key: (−): no 5FU was detected. It is filed as cell-based, Rat. The protocol:
as §4, §5

Assay [10] concerns HEK293FT. The assay is described as follows: Cell proliferation assay, HEK293FT. It is filed as cell-based, Human. The note with it: CD-transduced HEK293FT, 10 mM 5FC, 40 hours. The protocol: as §6
Assay [11] concerns HEK293FT cells. The assay is described as follows: 19F NMR detection of conversion of 5FC to 5FU, HEK293FT cells. The note with it: 24 hours, 10 mM 5FC. Details: key: (−): no 5FU was detected. It is filed as cell-based, Human. The procedure:
as §4
as §5, with “NMR data were processed and plotted using Topspin (Bruker, M A).” left out, “The complete results of the conversion detected using F NMR are listed in Table 1, as quantified by a conversion rate=peak area(5FU)/(peak area(5FU)+peak area(5FC)).” left out

T1 sequence (P25524 whole entry): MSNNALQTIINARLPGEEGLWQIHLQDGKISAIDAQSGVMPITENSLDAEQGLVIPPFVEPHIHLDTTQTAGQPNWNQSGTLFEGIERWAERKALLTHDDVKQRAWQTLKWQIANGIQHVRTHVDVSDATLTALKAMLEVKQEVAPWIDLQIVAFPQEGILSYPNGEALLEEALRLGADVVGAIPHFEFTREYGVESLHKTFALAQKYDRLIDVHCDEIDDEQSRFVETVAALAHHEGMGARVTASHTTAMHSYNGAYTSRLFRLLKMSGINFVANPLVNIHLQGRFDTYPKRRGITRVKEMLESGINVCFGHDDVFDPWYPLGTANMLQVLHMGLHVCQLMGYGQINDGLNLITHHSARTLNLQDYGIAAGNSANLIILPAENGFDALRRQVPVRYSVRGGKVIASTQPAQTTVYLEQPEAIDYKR

Turning to `Nc1cc[nH]c(=O)n1` [cytosine], the “exchange rate (kex) of the amine protons, QUEST” value in assay [1] is given as 8.1×10^2 Hz. In addition, the “conversion by recombinant CDase after 24 h” value in assay [2] is on record as “nearly complete”. The “incubation time at which a significant difference in MTRasym between transduced and nontransduced cells was observed” value in assay [3] came out at 4 h. In addition, in assay [4], the “relative change in MTRasym” value was found to be 50%.

As for LRRASLG, the “CEST contrast of unphosphorylated versus phosphorylated peptide” value in [5] is listed as “significantly higher contrast”. Further, the “decrease in CEST contrast on incubation with recombinant PKA” value in assay [6] (4 mM ATP, 30° C.) is recorded as more than 50%. The “time in which the majority of the signal difference is generated” value in assay [6] (recombinant PKA) was not above 15 min.

Consider `Nc1nc(=O)[nH]cc1F` [5FC, 5-fluorocytosine], for which the “19F NMR conversion of 5FC to 5FU” value in assay [7] (C17.2 CD, 24 hours) was “(−)”; in [7] (C17.2 CD, 48 hours), “(−)”; in assay [7] (C17.2 WT, 24 hours), “(−)”; in assay [7] (C17.2 WT, 48 hours), “(−)”; in assay [9] (9L CD, 24 hours), “(−)”; in assay [9] (9L CD, 48 hours) it was 8.5%. For the same compound, the “19F NMR conversion of 5FC to 5FU” value in assay [9] (9L WT, 24 hours) is on record as “(−)”; in [9] (9L WT, 48 hours), “(−)”; in assay [11] (HEK293FT CD), 38.9%; in assay [11] (HEK293FT WT), “(−)”. Further, the “number of viable cells after 5FC treatment” value in [8] and in [10] was “considerable decrease in the number of viable cells” in each case. The “conversion by recombinant CDase after 24 h” value in assay [2] was “not the case”. Also, the “incubation time at which a significant difference in MTRasym between transduced and nontransduced cells was observed” value in assay [3] stood at 24 h. For the same compound, in [4], the “relative change in MTRasym” value stood at 12%.
